From ChEMBL document CHEMBL1201862, “PubChem BioAssay data set” (2004)
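Step 1: Grow cells in 96-well plates. Step 2: Expose to compound for 48 hours at 5 concentrations. Step 3: Interpolate endpoints linearly; if unreached, use highest concentration. The concentration for 50% growth inhibition is given as GI50.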 Active and inactive are the calls of the source. Cut-off read from the data, not from the text of the source: active = GI50 up to about 1.1 µM and inactive = higher.

Experiments:
Test in all cases: growth of human tumour cells (NCI), 48 h
786-0 = test system: 786-0
A498 = test system: A498
A549 = test system: A549
ACHN = test system: ACHN
CAKI-1 = test system: CAKI-1
COLO 205 = test system: COLO 205
DMS-114 = test system: DMS-114
DMS-273 = test system: DMS-273
EKVX = test system: EKVX
HCT-15 = test system: HCT-15
HOP-62 = test system: HOP-62
HT-29 = test system: HT-29
IGROV-1 = test system: IGROV-1
KM-20L2 = test system: KM-20L2
LOX IMVI = test system: LOX IMVI
LXFL 529 = test system: LXFL 529
M14 = test system: M14
Malme-3M = test system: Malme-3M
NCI-H460 = test system: NCI-H460
OVCAR-5 = test system: OVCAR-5
OVCAR-8 = test system: OVCAR-8
RXF 393 = test system: RXF 393
RXF 631 = test system: RXF 631
SF-295 = test system: SF-295
SF-539 = test system: SF-539
SK-MEL-28 = test system: SK-MEL-28
SK-OV-3 = test system: SK-OV-3
SN12C = test system: SN12C
SNB-78 = test system: SNB-78
SW-620 = test system: SW-620
TK-10 = test system: TK-10
U-251 = test system: U-251
UACC-62 = test system: UACC-62
XF498 = test system: XF498
DLD-1 = test system: DLD-1
HCC 2998 = test system: HCC 2998
HCT-116 = test system: HCT-116
HL-60 = test system: HL-60
HOP-92 = test system: HOP-92
K562 = test system: K562
KM12 = test system: KM12
M19-MEL = test system: M19-MEL
MOLT-4 = test system: MOLT-4
NCI-H226 = test system: NCI-H226
NCI-H23 = test system: NCI-H23
NCI-H522 = test system: NCI-H522
OVCAR-3 = test system: OVCAR-3
OVCAR-4 = test system: OVCAR-4
RPMI-8226 = test system: RPMI-8226
SF-268 = test system: SF-268
SK-MEL-2 = test system: SK-MEL-2
SNB-19 = test system: SNB-19
SNB-75 = test system: SNB-75
SR = test system: SR
UACC-257 = test system: UACC-257
UO-31 = test system: UO-31
SK-MEL-5 = test system: SK-MEL-5
CCRF-CEM = test system: CCRF-CEM
HOP-18 = test system: HOP-18

Measured: GI50

O=C1OCc2c1cc1ccc(O)c(OC3OC(CO)C(O)C(O)C3O)c1c2-c1ccc2c(c1)OCO2 (stereo not given)
inactive: 786-0 > 100 µM | A498 > 100 µM | A549 > 100 µM | ACHN 72.1 µM | CAKI-1 87.3 µM | COLO 205 > 100 µM | DMS-114 47.5 µM | DMS-273 94.6 µM | EKVX > 100 µM | HOP-62 > 100 µM | HT-29 47.2 µM | IGROV-1 > 100 µM | KM-20L2 > 100 µM | LOX IMVI 86.7 µM | LXFL 529 68.1 µM | M14 87.3 µM | Malme-3M > 100 µM | NCI-H460 > 100 µM | OVCAR-5 > 100 µM | OVCAR-8 94 µM | RXF 393 59.4 µM | RXF 631 > 100 µM | SF-295 > 100 µM | SF-539 > 100 µM | SK-MEL-28 67.8 µM | SK-OV-3 > 100 µM | SN12C 89.3 µM | SNB-78 89.3 µM | SW-620 > 100 µM | TK-10 > 100 µM | U-251 > 100 µM | UACC-62 76.9 µM | XF498 62.7 µM
46.2 µM: HCT-15

Cc1ccc(OCC(=O)N2N=C(c3ccccc3)CC2(O)c2ccccc2)cc1 (stereo not given)
inactive: 786-0 16.4 µM | A549 20.5 µM | ACHN > 100 µM | CAKI-1 > 100 µM | COLO 205 28.2 µM | DLD-1 27.9 µM | DMS-273 20.8 µM | HCC 2998 > 100 µM | HCT-116 > 100 µM | HL-60 27.8 µM | HOP-62 27.8 µM | HOP-92 55.2 µM | HT-29 > 10 µM | IGROV-1 39.4 µM | K562 20.2 µM | KM-20L2 18 µM | KM12 99.5 µM | LOX IMVI 99.5 µM | LXFL 529 19.3 µM | M14 34.4 µM | M19-MEL 44.6 µM | MOLT-4 7.89 µM | Malme-3M > 100 µM | NCI-H226 25.9 µM | NCI-H23 22.6 µM | NCI-H460 15 µM | NCI-H522 > 100 µM | OVCAR-3 33.3 µM | OVCAR-4 18.5 µM | OVCAR-5 18.1 µM | OVCAR-8 91.2 µM | RPMI-8226 16.6 µM | RXF 631 26.9 µM | SF-268 > 100 µM | SF-295 76 µM | SF-539 43 µM | SK-MEL-28 80 µM | SK-MEL-2 > 100 µM | SK-OV-3 > 100 µM | SN12C 17.3 µM | SNB-19 > 100 µM | SNB-75 55.3 µM | SNB-78 22.1 µM | SR 9.44 µM | SW-620 51.6 µM | TK-10 > 100 µM | U-251 13 µM | UACC-257 > 100 µM | UACC-62 43.4 µM | UO-31 > 100 µM | XF498 > 100 µM
> 100 µM: HCT-15

CC1=Nc2ccccc2C12C(c1ccccc1)C(c1ccccc1)C(=O)N1c3ccccc3CC12 (stereo not given)
inactive: 786-0 > 100 µM | A498 > 100 µM | A549 > 100 µM | ACHN > 100 µM | CAKI-1 > 100 µM | COLO 205 > 100 µM | DLD-1 > 100 µM | DMS-114 > 100 µM | DMS-273 > 100 µM | EKVX > 100 µM | HCC 2998 > 100 µM | HCT-116 > 100 µM | HL-60 > 100 µM | HOP-62 > 100 µM | HOP-92 > 100 µM | HT-29 > 100 µM | IGROV-1 > 100 µM | K562 > 100 µM | KM-20L2 > 100 µM | KM12 > 100 µM | LOX IMVI > 100 µM | LXFL 529 > 100 µM | M14 > 100 µM | MOLT-4 > 100 µM | Malme-3M > 100 µM | NCI-H226 > 100 µM | NCI-H23 > 100 µM | NCI-H460 > 100 µM | NCI-H522 > 100 µM | OVCAR-3 > 100 µM | OVCAR-4 19.9 µM | OVCAR-5 > 100 µM | OVCAR-8 > 100 µM | RPMI-8226 > 100 µM | RXF 393 > 100 µM | RXF 631 > 100 µM | SF-295 > 100 µM | SF-539 > 100 µM | SK-MEL-28 > 100 µM | SK-MEL-2 > 100 µM | SK-MEL-5 > 100 µM | SK-OV-3 > 100 µM | SN12C > 100 µM | SNB-19 > 100 µM | SNB-75 73.1 µM | SNB-78 > 100 µM | SR > 100 µM | SW-620 > 100 µM | TK-10 > 100 µM | U-251 > 100 µM | UACC-257 > 100 µM | UACC-62 > 100 µM | UO-31 > 100 µM | XF498 11.9 µM
> 100 µM: HCT-15

COc1cc([C@@H]2c3cc4c(cc3[C@@H](NCc3ccccc3)C3COC(=O)[C@@H]32)OCO4)cc(OC)c1O (stereo not given in full)
active: MOLT-4 0.891 µM | NCI-H460 0.547 µM | SR 0.345 µM
6.34 µM: HCT-15
inactive: 786-0 3.47 µM | A498 6.05 µM | A549 1.41 µM | ACHN 1.17 µM | CAKI-1 2.24 µM | CCRF-CEM 3.13 µM | COLO 205 27.2 µM | DLD-1 21.6 µM | DMS-114 8.41 µM | DMS-273 1.68 µM | EKVX 13.1 µM | HCC 2998 17.1 µM | HCT-116 14 µM | HL-60 2.74 µM | HOP-62 4 µM | HOP-92 5.83 µM | HT-29 16.4 µM | IGROV-1 21.3 µM | K562 16.6 µM | KM-20L2 17.9 µM | KM12 12.8 µM | LOX IMVI 5.25 µM | LXFL 529 19.3 µM | M14 6.65 µM | M19-MEL 14.1 µM | Malme-3M 11.2 µM | NCI-H226 3.46 µM | NCI-H23 3.64 µM | OVCAR-3 17.8 µM | OVCAR-4 38.2 µM | OVCAR-5 29 µM | OVCAR-8 10.8 µM | RPMI-8226 3.8 µM | RXF 393 20.8 µM | RXF 631 3.44 µM | SF-268 7.19 µM | SF-295 4.03 µM | SF-539 6 µM | SK-MEL-28 25 µM | SK-MEL-2 23.4 µM | SK-MEL-5 11.8 µM | SK-OV-3 6.52 µM | SN12C 3.28 µM | SNB-19 4.86 µM | SNB-75 6.21 µM | SNB-78 34.9 µM | SW-620 8.57 µM | TK-10 26 µM | U-251 3.71 µM | UACC-257 27.1 µM | UACC-62 3.83 µM | UO-31 7.08 µM | XF498 13.2 µM

Nc1nc(=O)n(C2CC(O)C(O)C(CO)O2)cc1F (stereo not given)
inactive: 786-0 > 100 µM | A498 > 100 µM | A549 > 100 µM | ACHN > 100 µM | CCRF-CEM > 100 µM | COLO 205 > 100 µM | DLD-1 > 100 µM | DMS-114 > 100 µM | EKVX > 100 µM | HCC 2998 > 100 µM | HCT-116 > 100 µM | HL-60 > 100 µM | HOP-18 > 100 µM | HOP-62 > 100 µM | HT-29 > 100 µM | IGROV-1 > 100 µM | K562 > 100 µM | KM-20L2 > 100 µM | LOX IMVI > 100 µM | LXFL 529 > 100 µM | M14 > 100 µM | M19-MEL > 100 µM | MOLT-4 > 100 µM | Malme-3M > 100 µM | NCI-H226 > 100 µM | NCI-H23 > 100 µM | NCI-H460 > 100 µM | NCI-H522 > 100 µM | OVCAR-3 > 100 µM | OVCAR-4 > 100 µM | OVCAR-5 > 100 µM | OVCAR-8 > 100 µM | RPMI-8226 > 100 µM | RXF 393 > 100 µM | RXF 631 > 100 µM | SF-268 > 100 µM | SF-295 > 100 µM | SF-539 > 100 µM | SK-MEL-28 > 100 µM | SK-MEL-2 > 100 µM | SN12C > 100 µM | SNB-19 > 100 µM | SNB-75 > 100 µM | SNB-78 > 100 µM | SW-620 > 100 µM | TK-10 > 100 µM | U-251 > 100 µM | UACC-257 > 100 µM | UACC-62 > 100 µM | UO-31 > 100 µM | XF498 61.4 µM
> 100 µM: HCT-15
